{
  "source": "paper PMC5561046",
  "about": "“Cytochrome P450/ABC transporter inhibition simultaneously enhances ivermectin pharmacokinetics in the mammal host and pharmacodynamics in Anopheles gambiae” (Scientific Reports, 2017)",
  "key": {"Anopheles gambiae [1]": {"system": "Anopheles gambiae", "set-up": "method as in PMID 25414262", "settings": "cited from earlier work"}, "[2]": {"settings": "cited from earlier work"}, "Anopheles gambiae [3]": {"system": "Anopheles gambiae", "experiment": "Synergistic mosquito bioassay: membrane feeding with mini-pig serum samples, mortality follow-up", "type": "in vivo, Anopheles gambiae s.s.", "settings": "for Mean survival / Time to median mortality: Anopheles gambiae, membrane feeding", "procedure": "Mosquitoes were membrane fed with reconstituted blood as described by Bousema et al.[51].\nSince mosquitoes grouped in cups for feeding, we used a cluster design in which the unit of intervention was mosquito cups. Our primary outcome was mean 10-day mosquito mortality after membrane feeding. Sample size calculations were conducted according to the method described by Gangnon and Kosorok[52]. The minimum expected 10-day mortality in mosquitoes imbibing blood containing 9.9 ng/ml of ivermectin is 66%; this is based on the predictive function described by Ouedraogo et al.[50]. Based on previous observations and with all mosquitoes having the same colony origin and age range, we chose a conservative intracluster correlation of 0.15. The frailty variance of clusters was resembled by a gamma of 1. All experiments were performed in triplicate. With these parameters, at least 4 clusters of 44 mosquitoes were needed per arm to achieve 80% power at 5% significance level accounting for 10% non-feeders.\nBaseline serum samples collected before ivermectin treatment in ketoconazole and naïve pigs were used as controls. These samples were shipped frozen to the insectary facilities of the Ifakara Health Institute in Bagamoyo, Tanzania for membrane feeding assays. It was hypothesised that induction of the mosquito CYP/P-gp by rifampicin could improve survival in presence of ivermectin, but this could not be tested due to a reduced absorption of ivermectin in the mini-pigs pre-treated with rifampicin (see below).\nFor all experiments, we used the fully susceptible Anopheles gambiae s.s. colony maintained at the insectary in Bagamoyo. Mosquitoes were reared at 28 °C, 80% humidity and with a photoperiod of 12:12. Larvae were kept in large plastic bowls covered with netting containing approximately 2 litres of water with larval densities not exceeding one 4th instar larvae per ml. Larvae were fed Tetramine fish flakes ad libitum. Once they developed into pupae these were collected using disposable plastic Pasteur pipettes and transferred to small bowls containing approximately 200 ml of clean water. The pupae bowls were then placed inside fully screened cages (30 × 30 × 30 cm) where adult mosquitoes were allowed to emerge and given 10% glucose as a sugar source ad libitum.\nOnly mosquitoes of 2–5 days of age were used for the experiments. Before the experiments, mosquitoes were starved from sugar for 12–18 hours and from water for one hour. Hungry females were selected by applying a bottle with heated water (37–40 °C) to the cage. 40–50 hungry females were transferred to each paper cup using a mouth aspirator.\nWe performed membrane feeding assays with serum replacement as previously described. For each experiment, the selected pig sample was thawed and 1 ml of whole blood was centrifuged at 2100 rpm for 10 minutes. The serum volume was noted and replaced with the same amount of the sample pig-serum being tested. After this, tubes were inverted 10 times. Each sample was tested in triplicate.\nIn order to reduce potential confounding arising from variations in bloodmeal size, partially fed mosquitoes were discarded and only fully engorged females followed up for the mortality assessment. After each feeding experiment, the cups were placed on ice for 1–2 minutes to select and transfer fully engorged females.\nCups with fully engorged mosquitoes were kept at 24–26 °C and 65–70% relative humidity inside climate controlled incubators. Mosquitoes were maintained with 10% glucose solution using impregnated cotton. Mortality was recorded daily for 9 days by a person blinded to the allocation of the cups. Dead mosquitoes were removed from the cups daily.\nSurvival Kaplan-Meier analysis was performed in Addinsoft’s XLSTAT ® Version 2016.04.32229 (New York, NY, USA). Comparisons of survival patterns were done with Log-rank test using a 5% significance level adjusted for cluster design."}, "[4]": {"experiment": "Clinical observation of mini-pigs for adverse events / ivermectin toxicity signs", "type": "in vivo, mini-pig", "settings": "oral ivermectin 800 mcg/kg with or without ketoconazole or rifampicin pre-treatment", "procedure": "Six hybrid mini-pigs (2 male, 4 female) weighing between 46 and 70 kg were procured from our accredited breeding centre at the University of Navarra. They were housed individually throughout the study at the animal research facilities in the University of Navarra. From arrival onward, the animals were assessed daily for general wellbeing and after the intervention, also for specific ivermectin toxicity signs."}, "[5]": {"experiment": "Drug-drug interaction study: ivermectin plasma pharmacokinetics in mini-pigs", "settings": "for AUC inf, Median (Range) / Cmax, Median (Range) / AUC > LD50, Median (Range) / Time > LD50, Median (Range): group median (range); for AUC inf, Median (Range) / Cmax, Median (Range): plasma ivermectin, single oral 800 mcg/kg; for AUC inf, Median (Range) / Cmax, Median (Range) / AUC > LD50, Median (Range) / Time > LD50, Median (Range) / Time > LD50: treatment group as in the label; for AUC > LD50, Median (Range): area under the plasma ivermectin curve above 6 ng/ml; for AUC > LD50, Median (Range) / Time > LD50, Median (Range) / Time > LD50: oral 800 mcg/kg; for Time > LD50, Median (Range): time plasma ivermectin is above 6 ng/ml; for Time > LD50: individual mini-pig, time plasma ivermectin is above 6 ng/ml (10-day LC50 for Anopheles gambiae)", "procedure": "(§1) The experiments were conducted following a randomised crossover design (Fig. 1). In phase I all mini-pigs received a single 800 mcg/kg dose of oral ivermectin and sampling was done as described below. […] The total wash-out period between ivermectin doses was 30 days. […] Inhibiting the P-gp could theoretically lead to toxicity due to abnormal accumulation of the drug in the brain[30], [31]. […] Irrespectively of this, drug quantification in cerebrospinal fluid (CSF) was added as an additional safety point. Rifampicin a CYP/P-gp inducer[49] was included as we expected to see reduced bioavailability and penetration into CSF.\nThe pre-medication drugs were administered by crushing the tablets and mixing them with canned meat products used for enrichment. For ivermectin administration and sampling during the first 8 hours, the animals were sedated with a single intramuscular dose of tiletamine-zolazepan (4 mg/kg) and maintained with inhalatory isoflurane (1.5–2%). In pigs, there is no evidence of a significant interaction (other than being a substrate) of these drug classes with the CYP3A4 or the P-gp[80]. Ivermectin was administered via nasogastric tube.\nFor blood sampling during the first eight hours, a femoral line was left in place and later removed during recovery from anaesthesia. Blood sampling thereafter was done by jugular puncture under restrain. […] For the mosquito bioassay, additional serum samples were obtained at every time point, and frozen at −20 °C.\nBlood samples were drawn in 3 ml EDTA tubes and centrifuged. Plasma was separated and frozen at −20 °C until analysis. CSF samples were frozen at −20 °C.\n(§2) Ivermectin levels in plasma and CSF were determined using a validated adaptation of a previously described HPLC-FLD[82]. The detection limit in plasma and CSF was 0.1 ng/ml, the quantification limit was 0.5 ng/ml.\nPharmacokinetic analyses were performed using Phoenix WinNonlin 6.4 (Certara, Princeton, NJ, USA). Pharmacokinetic parameters were derived from non-compartmental analyses.\nThe comparison of PK parameters between ivermectin groups was done by means of a two-sided Mann-Whitney test."}, "[6]": {"settings": "minipig, in vivo", "procedure": "as §1\nFor obtaining CSF samples during the first 8 hours, an intrathecal catheter was placed by means of fluoroscopy-guided lateral lumbar puncture[81] (Fig. 5). Given the challenges posed by the particular anatomy of the pig, efforts were done to tunnel the intrathecal catheter and connect it to a subcutaneous reservoir in order to avoid repeating the technically demanding lumbar puncture during phase II of the study (Fig. 5). […] Sampling points for CSF were: pre-treatment and at 0.5, 1, 2, 3, 4, 5, 6, 7 and 8 hours. […]\nas §2"}, "CYP 3A4": {"system": "CYP 3A4", "set-up": "method as in PMID 19255936", "settings": "estimated; cited from earlier work"}, "[7]": {"settings": "Pair 1: ivermectin 9.98 (IVM) vs 8.96 (KET) ng/ml in the fed sample"}, "[8]": {"settings": "Pair 2: ivermectin 16.5 (IVM) vs 17.23 (KET) ng/ml in the fed sample"}, "[9]": {"settings": "Pair 3: ivermectin 20.46 (IVM) vs 20.39 (KET) ng/ml in the fed sample"}, "[10]": {"settings": "Pair 4: ivermectin 27.58 (IVM) vs […] (KET) ng/ml in the fed sample"}},
  "note": "“And” between values parts separate entries of the source, which are not always exact repeats. Equal entries are not always repeated. “Also recorded” adds a separate entry of the source.",
  "data": [
    {"compound": "CCC(C)C1OC2(CCC1C)CC1CC(CC=C(C)C(OC3CC(OC)C(OC4CC(OC)C(O)C(C)O4)C(C)O3)C(C)C=CC=C3COC4C(O)C(C)=CC(C(=O)O1)C34O)O2", "note": "(stereo not shown) [Ivermectin]", "values": [
      {"measurement": "10-day lethal concentration 50 (LC50)", "setting": "Anopheles gambiae [1]; kills 50% of Anopheles gambiae in 10 days", "value": 6, "unit": "ng/ml"},
      {"measurement": "minimum expected 10-day mortality", "setting": "Anopheles gambiae [1]; mosquitoes imbibing blood containing 9.9 ng/ml of ivermectin, from predictive function", "value": 66, "unit": "%"},
      {"measurement": "time for which concentrations that kill 50% of Anopheles gambiae in 10 days are sustained", "setting": "[2]; after the single dose of 200 mcg/kg commonly used for NTDs, no reference given", "value": "around 72 hours"},
      {"measurement": "half-life", "setting": "[2]", "value": 18, "unit": "h"},
      {"measurement": "Mean survival", "setting": "Anopheles gambiae [3]; [7]", "value": "6.73 (6.29–7.17) days"},
      {"measurement": "Time to median mortality", "setting": "Anopheles gambiae [3]; [7]", "value": 7, "unit": "days"},
      {"measurement": "Mean survival", "setting": "Anopheles gambiae [3]; [8]", "value": "5.11 (4.63–5.86) days"},
      {"measurement": "Time to median mortality", "setting": "Anopheles gambiae [3]; [8]", "value": 5, "unit": "days"},
      {"measurement": "Mean survival", "setting": "Anopheles gambiae [3]; [9]", "value": "7.43 (7.11–7.75) days"},
      {"measurement": "Time to median mortality", "setting": "Anopheles gambiae [3]; [9]", "value": 7, "unit": "days"},
      {"measurement": "Mean survival", "setting": "Anopheles gambiae [3]; [10]", "value": "5.28 (4.54–6.02) days"},
      {"measurement": "Time to median mortality", "setting": "Anopheles gambiae [3]; [10]", "value": 5, "unit": "days"},
      {"measurement": "clinical adverse events", "setting": "[4]", "value": "No clinical adverse events were observed"},
      {"measurement": "AUC inf, Median (Range)", "setting": "[5]; listed as Ivermectin 1", "value": "244 (1899) h·ng/mL"},
      {"measurement": "Cmax, Median (Range)", "setting": "[5]; listed as Ivermectin 1", "value": "8.7 (26.0) ng/mL"},
      {"measurement": "AUC inf, Median (Range)", "setting": "[5]; listed as Ivermectin 2", "value": "1205.3 (349) h·ng/mL"},
      {"measurement": "Cmax, Median (Range)", "setting": "[5]; listed as Ivermectin 2", "value": "18 (5.6) ng/mL"},
      {"measurement": "AUC inf, Median (Range)", "setting": "[5]; listed as Ivermectin(combined)", "value": "862.7 (1899) h·ng/mL"},
      {"measurement": "AUC > LD50, Median (Range)", "setting": "[5]; listed as Ivermectin 1", "value": "23.7 (509.4) h·g/mL"},
      {"measurement": "AUC > LD50, Median (Range)", "setting": "[5]; listed as Ivermectin 2", "value": "297.6 (142.6) h·g/mL"},
      {"measurement": "Time > LD50, Median (Range)", "setting": "[5]; listed as Ivermectin 1", "value": "4.6 (46.7) h"},
      {"measurement": "Time > LD50, Median (Range)", "setting": "[5]; listed as Ivermectin 2", "value": "49.9 (9.1) h"},
      {"measurement": "Time > LD50", "setting": "[5]; listed as Ivermectin 1", "value": 9.3, "unit": "h"},
      {"measurement": "Time > LD50", "setting": "[5]; listed as Ivermectin 2", "value": "54.5 h and 45.4 h"},
      {"measurement": "Time > LD50", "setting": "[5]; listed as Ivermectin(combined)", "value": "46.7 h and 27.2 h and 0.0 h"},
      {"measurement": "increase in ivermectin time above LC50", "setting": "[5]; ketoconazole pre-treatment vs ivermectin alone, mini-pigs", "value": 3, "unit": "fold"},
      {"measurement": "median Cmax", "setting": "[5]; plasma ivermectin in mini-pigs, ivermectin alone (combined) vs ketoconazole pre-treatment, P = 0.033", "value": 14, "unit": "ng/mL"},
      {"measurement": "total AUC", "setting": "[5]; plasma ivermectin in mini-pigs, ivermectin alone (combined) vs ketoconazole pre-treatment, P = 0.067, not significant", "value": 862, "unit": "ng·h/mL"},
      {"measurement": "ivermectin concentration in CSF", "setting": "[6]", "value": "< 0.5", "unit": "ng/mL"},
      {"measurement": "number of CSF samples in which ivermectin was detectable", "setting": "[6]", "value": 4}
    ]},
    {"compound": "CO[C@H]1/C=C/O[C@@]2(C)Oc3c(C)c(O)c4c(O)c(c(/C=N/N5CCN(C)CC5)c(O)c4c3C2=O)NC(=O)/C(C)=C\\C=C\\[C@H](C)[C@H](O)[C@@H](C)[C@@H](O)[C@@H](C)[C@H](OC(C)=O)[C@@H]1C", "note": "[rifampicin, Rifampicin]", "values": [
      {"measurement": "effect of pre-treatment on ivermectin absorption", "setting": "[5]; rifampicin pre-treatment (CYP/P-gp induction), mini-pigs, oral ivermectin 800 mcg/kg", "value": "markedly impaired ivermectin absorption; also recorded: seriously hampered ivermectin absorption"}
    ]},
    {"compound": "CC(=O)N1CCN(c2ccc(OCC3COC(Cn4ccnc4)(c4ccc(Cl)cc4Cl)O3)cc2)CC1", "note": "(stereo not shown) [ketoconazole]", "values": [
      {"measurement": "effect on mortality of Anopheles gambiae fed samples containing ivermectin", "setting": "Anopheles gambiae [3]; ketoconazole at CYP inhibition concentrations, matched ivermectin concentrations (+/−1 ng/ml), all four pairs", "value": "significantly increased the mortality"},
      {"measurement": "effect on 10-day mortality of Anopheles gambiae", "setting": "Anopheles gambiae [3]; ketoconazole-only baseline pig sample vs fully drug-free sample, Log-rank P = 0.048, n = 222", "value": "did not increase the mortality"},
      {"measurement": "IC50", "setting": "CYP 3A4", "value": "[…]"}
    ]}
  ]
}
